Experimental data reported in PMC10460801 (Advanced Pharmaceutical Bulletin, 2022).
In brackets after ≈: the same amount, converted by molar mass. Read-outs that look alike come from different tables or passages of the source.

What was measured:
[1] = cited from earlier work
[2] = Saturation shake-flask equilibrium solubility (48 h, 37 °C, UV-Vis); assay type: physicochemical; settings: for solubility thermodynamic at 48 h: thermodynamic from solid, read-out: Css mean
Experimental: In this study dissolution test has been performed in the presence of amino acids within various media, including phosphate buffer solution (pH = 7.4), hydrochloric acid buffer (pH = 1.2), citrate buffer (pH = 6 and pH = 4.2), and distilled water (pH = 6.5). Briefly, for each buffer, a suitable amount of components was transferred to a 250 mL volumetric flask and then diluted with distilled water to the volume line. Finally, the pH of the solution was examined and set using a pH meter (Germany, Metrohm SWISS mode).
The saturation shake-flask method has been used for solubility studies. In brief, buffer solutions containing different concentrations of each amino acid were prepared. An excess amount of each drug was weighed in capped vials, then buffers alone and mixed with amino acids were added to the vials and the pH change was set again. After that, capped vials were shaken for about 48 hours on a shaker incubator (Korea, HYSC) at speed of 150 RPM and 37^ᵒC to reach equilibrium and result a saturated solution. After 48 hours the upper phase was separated and centrifuged. Filtered samples were diluted with buffer before reading their UV-Vis absorbance. Then the amount of solubility was calculated using a calibration curve considering the dilution coefficient. Each of the experiments was repeated three times.

[3] = cited from earlier work; remark: listed apart in the source
[4] = Citrate buffer, pH 6 before incubation, 48 h, 37 °C
[5] = Phosphate buffer, pH 7.4 before incubation, 48 h, 37 °C
[6] = Water, pH 6.5 before incubation, 48 h, 37 °C
[7] = aqueous buffer, Citrate buffer, pH 6 before incubation, 48 h, 37 °C
[8] = aqueous buffer, Phosphate buffer, pH 7.4 before incubation, 48 h, 37 °C
[9] = distilled water, pH 6.5, increasing GlucN
[10] = hydrochloric acid buffer, pH 1.2 before incubation, 48 h, 37 °C
[11] = Citrate buffer, pH 4.2 before incubation, 48 h, 37 °C

SMILES	Measured Css Sample 1 [2, 4]	Measured Css Sample 2 [2, 4]	Measured Css Sample 3 [2, 4]	Measured Css Sample 1 [2, 5]	Measured Css Sample 2 [2, 5]	Measured Css Sample 3 [2, 5]	solubility thermodynamic at 48 h [2, 7]	solubility thermodynamic at 48 h [2, 8]	change of drug solubility in the presence of GlucN ([2]; citrate buffer, pH 6)	change of drug solubility in the presence of GlucN [2, 9]	other results
N[C@H]1C(O)O[C@H](CO)[C@@H](O)[C@@H]1O (stereo partly drawn) [GlucN, Glucosamine]											water solubility [1]: 320000 µg/mL (≈ 1790 mM)
CC(C)Cc1ccc(C(C)C(=O)O)cc1 (stereo not drawn) [IBU, Ibuprofen]	5330 µg/mL	5050 µg/mL	5240 µg/mL	10510 µg/mL	10330 µg/mL	10510 µg/mL	5200 µg/mL (≈ 25.2 mM)	10400 µg/mL (≈ 50.7 mM)	solubility increased	follows an upward pattern	Measured Css Sample 1 [2, 6]: 3210 µg/mL; Measured Css Sample 2 [2, 6]: 3110 µg/mL; Measured Css Sample 3 [2, 6]: 3060 µg/mL; solubility thermodynamic at 48 h ([2]; distilled water, Water, pH 6.5 before incubation, 48 h, 37 °C): 3120 µg/mL (≈ 15.1 mM); Css mean [2, 10]: 800 µg/mL; Measured Css Sample 1 [2, 10]: 790 µg/mL; Measured Css Sample 2 [2, 10]: 820 µg/mL; Measured Css Sample 3 [2, 10]: 790 µg/mL; solubility thermodynamic at 48 h ([2]; simulated gastric fluid, hydrochloric acid buffer, pH 1.2 before incubation, 48 h, 37 °C): 800 µg/mL (≈ 3.88 mM); unionized fraction in the stomach [3]: 99.9%; intrinsic water solubility ([1]; free acid): ~60 µg/mL
CN1C(C(=O)Nc2ccccn2)=C(O)c2ccccc2S1(=O)=O [PXM, Piroxicam]	140 µg/mL	130 µg/mL	150 µg/mL	1250 µg/mL	1320 µg/mL	1320 µg/mL	140 µg/mL (≈ 0.423 mM)	1290 µg/mL (≈ 3.89 mM)	improved the solubility	does not change significantly	Measured Css Sample 1 [2, 11]: 280 µg/mL; Measured Css Sample 2 [2, 11]: 230 µg/mL; Measured Css Sample 3 [2, 11]: 250 µg/mL; solubility thermodynamic at 48 h ([2]; aqueous buffer, Citrate buffer, pH 4.2 before incubation, 48 h, 37 °C): 250 µg/mL (≈ 0.754 mM); change of drug solubility in the presence of GlucN ([2]; citrate buffer, pH 4.2): enhanced; change of drug solubility in the presence of LYS ([2]; citrate buffer, pH 4.2, Figure 3B): did not follow a specific trend; change of drug solubility in the presence of ARG ([2]; phosphate buffer, concentration above molar ratio 1:1 PXM/ARG, Figure 3A): solubility goes down
